Data on 88 compounds can be found in a melting point compilation (Tetko et al.; mined from patent text by program, amines drawn as free bases though some values may be those of a salt).

In general, melting point refers to the temperature, or range, at which the solid turns liquid. For the compound `CCOC(=O)c1c(C(F)(F)F)nc(C(F)F)c(C(=O)OC)c1NCC(F)(F)F`, the melting point lay within 64 to 66 °C.
For `COc1cccc(-c2cc(Cl)ncn2)c1`, the melting point fell in the range of 112 to 115 °C.
Regarding `CCCn1cc2c(C3C(=O)Nc4ccc(Br)cc43)nc(NCCc3cccnc3)nc2n1` (stereo not drawn), the melting point lay within 294 to 297 °C.
`CNc1nc(=O)c2ccccc2n1Cc1ccc(F)cc1` displayed a melting point of 251 to 255 °C.
Next, `CCNc1cccc(-c2ccnc3c(C(=O)c4ccco4)cnn23)c1`: 142 to 143 °C; `Cc1ccc(C(=O)CCl)cc1S(N)(=O)=O`: 166 °C.
Take `CCOC(=O)c1nnn[nH]1`: the melting point was in the range of 86 to 90 °C.
`NC(N)=Nc1nc(-c2nc(N)sc2C=NS(N)(=O)=O)cs1` yielded a melting point of over 300 °C.
`CCCCCc1c(/C=C/C(=O)O)oc2cc(OC)ccc12` had a melting point of 146 to 147 °C.
As for `CCOC(=O)C1=C(C)NC(COCCN2C(=O)c3ccccc3C2=O)=C(C(=O)OCC)C1c1ccccc1Cl` (stereo not drawn), the figure is 142 to 144 °C.
The compound `CC(=O)NC(Cc1ccccc1)C(=O)NC(C)C(=O)O` (stereo not drawn) yielded a melting point of 128 to 132 °C.
Compound `CNS(=O)(=O)c1ccc(Oc2ccc(N)cc2)cc1` registered a melting point of 121 to 122 °C.
`Cc1c(-c2cc(O)c(Cl)cc2F)ncnc1C(F)(F)F` displayed a melting point of 141 to 142 °C.
On to `COC(=O)c1ccc([N+](=O)[O-])s1`, for which the melting point turned out to be 74 °C.
Take `O[C@@H]([C@H](O)[C@@H](COc1ccccc1)OCc1ccccc1)[C@@H](COc1ccccc1)OCc1ccccc1`: the melting point was determined as 80 °C.
Consider `COc1ccc(Nc2nc(Cl)nc(NCCO)n2)cc1`, for which the melting point was in the range of 169 to 173 °C.
For the compound `CCCCCCCCCCCCCCCCCCOC(=O)Cc1cc(C(C)(C)C)c(O)c(C)c1C`, the melting point is 79 to 81 °C.
`CC(=O)Nc1cnc(-c2cc(Cl)ccc2Cl)c(N)n1` had a melting point of 152 to 154 °C.
In turn, `COc1cc(N)c(Cl)cc1C(=O)NC1CCN(C(C)CC(C(=O)N(C)C)(c2ccccc2)c2ccccc2)CC1O` (stereo not drawn) came in with a melting point of 132 °C.
Regarding `CC(C)c1cc(-c2ccc(N)c3ccccc23)nc(N)n1`, the melting point lay in the range of 185 to 186 °C.
As for `CCOC(=O)COc1ccc(NC(=O)c2cnc(NC(=N)N)s2)cc1`, the figure is 218 °C.
As to `CC(C)CCc1c(-c2ccc(S(C)(=O)=O)cc2)cnn(-c2ccc(F)c(F)c2)c1=O`, the melting point was 55 to 58 °C.
For `Cc1ccc(S(=O)(=O)OCC(O)(CC(C)c2ccccc2)C(F)(F)F)cc1` (stereo not drawn), the melting point was 95 to 96 °C.
As for `O=S(=O)(N[C@H](CO)[C@@H](c1cc(F)cc(F)c1)C(F)(F)F)c1ccc(Cl)s1`, the figure is 126 °C; as for `Cc1cnc(NC(=O)C2=C(O)c3ccc4ccccc4c3S(=O)(=O)N2C)s1`, 249 to 250 °C.
Compound `O=C1CSC(=S)N1N=c1sc2ccccc2s1` yielded a melting point of 295 to 300 °C.
Turning to `CC(C)(C)c1ccc(NC(=O)OCC2(COC(=O)Nc3ccc(C(C)(C)C)cc3)CSc3ccccc3C2=O)cc1`, the melting point was 78 to 85 °C.
The compound `COc1ccc(C(=O)CCC#N)cc1` displayed a melting point of 94 °C.
As to `O=C(NCC(c1ccccc1)c1ccccc1)C1Cc2ccccc2N1S(=O)(=O)c1ccc(-c2ccc(F)cc2)cc1` (stereo not drawn), the melting point lay in the range of 80 to 82 °C.
Take `O=C(O)CCCC1(c2ccc(F)cc2)OCCO1`: the melting point lay in the range of 65 to 67 °C.
Turning to `CS(=O)(=O)c1ccccc1-c1ccc(C(=O)O)cc1`, the melting point is 273 to 275 °C.
For the compound `CCOC(=O)C1(C(=O)OCC)CCNC(=O)CC1`, the melting point was in the range of 80 to 81 °C.
As to `CC(C)c1ccc2nc3ccc(C(=O)O)cc3c(=O)n2c1`, the melting point was in the range of 312 to 316 °C.
Compound `CCN(CC)C(=S)n1cnc(S(=O)(=O)CC2CCCC2)n1` displayed a melting point of 78 °C.
`CCCC(=O)c1cn(C)cc(-c2cccc(C(F)(F)F)c2)c1=O` returned a melting point of 93 to 94 °C.
Consider `Cn1ncc(C(=O)N2CCC2)c1C(=O)Nc1ccn2nc(-c3ccccc3)nc2c1`, for which the melting point lay within 243 to 245 °C.
In the case of `Cc1nc(C)c(Cl)c(NCc2ccc(O)cc2)n1`, the melting point is 202 °C.
Compound `Cc1cc(C2=NOC(c3cc(Cl)cc(Cl)c3)(C(F)(F)F)C2O)ccc1C(=O)O` (stereo not drawn) had a melting point of 215 to 217 °C.
`Cc1ccc2c(O)c(C(=O)O)cnc2c1` displayed a melting point of 264 to 265 °C.
Turning to `Cc1ncc(-c2ccc(F)cc2)n1-c1ccc(Cl)cc1`, the melting point fell in the range of 132 to 134 °C.
`CCc1ccccc1-n1ncc(C#N)c1N` yielded a melting point of 130 °C.
`CSCc1noc(-c2cc(C(C)(C)C)c(O)c(C(C)(C)C)c2)n1` came in with a melting point of 97 to 98 °C.
Next, `Cc1c(-c2cnccn2)c(N2CC[C@H](N(C)C)C2)c2oc(C3CC3)nc2c1C#N`: 157 to 159 °C; `COc1ccc(C(=O)CC(Cc2ccccc2)C(=O)O)cc1` (single isomer, unassigned; (+)): 93 °C; `CCCCc1c(-c2ncccc2C(=O)O)n(-c2ccccc2)n(-c2ccccc2)c1=O`: 139 to 141 °C.
As for `O=C1C(=O)N(Cc2ccc(Br)cc2F)c2c(Cl)cccc21`, the figure is 164 to 166 °C; as for `O=C(O)C1CCCCN1CC=CP(=O)(O)O` (stereo not drawn), 163 to 165 °C; as for `Cc1cn(C)cc(-c2cccc(Cl)c2)c1=O`, 143 to 144 °C.
`Cc1cccc(NC(=O)NCC(=O)N(CC(=O)N2CCCCCC2)c2ccccc2)c1`: the melting point is 245 °C.
On to `COCC1CN(c2ccc(C3CCN(C(=O)c4ccc(C(F)(F)F)cc4)CC3)cc2)C(=O)O1` (racemic), for which the melting point lay within 164 to 166 °C.
In turn, `COc1ccc(C2=C(c3ccccc3)CCCc3cc(OCc4ccccc4)ccc32)cc1` showed a melting point of 163 to 164 °C.
As for `O=C(NN=Cc1ccc(Cl)cc1)c1[nH]c2ccccc2c1C(=O)Nc1ccccc1`, the figure is over 260 °C.
Next, `C=CCC(C)(C)C(NC(=O)c1ccc(Cl)cc1)NC(=NC#N)Nc1cccnc1` (stereo not drawn): 97 to 98 °C.
Turning to `COc1ccc(C(=O)CC2CCCCCCC2=O)cc1` (stereo not drawn), the melting point lay in the range of 54 to 56 °C.
As for `COc1ccc(CCNC(=O)C(=O)NCc2ccncc2)cc1OC1CCCC1`, the figure is 129 to 131 °C.
Next, `C=CCN(c1ccccc1)c1ncc(C(C)C(=O)O)s1` (stereo not drawn): 134 to 135 °C; `COCCc1nnc(NC(=O)C(c2ccccc2)c2ccccc2)o1`: 114 to 115 °C; `CCCCCCCCCCOC(=O)N[C@H]1CCCNC(=O)C1`: 40 to 41 °C.
In turn, `CCCCCc1csc(-c2ccc3c(c2)C=C(C(=O)Nc2ccc(CN(C)C4CCOCC4)cc2)CCS3(=O)=O)c1` came in with a melting point of 204 to 206 °C.
The compound `COc1ccccc1-n1c(-c2sc(Nc3ccccc3)nc2C)nc2ccccc2c1=O` returned a melting point of 169 to 170 °C.
Compound `O=C(O)c1cccnc1Oc1ccc(-c2nnn[nH]2)cc1` gave a melting point of 225 to 230 °C.
The compound `CC(C)[C@@H](NC(=O)c1cnc(N2CCC(N3C(=O)OCc4ccccc43)CC2)c(Cl)c1)C(N)=O` gave a melting point of 140 to 143 °C.
On to `O=C(CSc1ccccc1)c1ccc2[nH]c3ncc(Cl)cc3c2c1`, for which the melting point lay within 238 to 239 °C.
Consider `O=C(OCc1snc(Cl)c1Cl)c1ccccc1`, for which the melting point fell in the range of 79 to 80 °C.
In turn, `OCCN1c2ccccc2Oc2ccccc21` gave a melting point of 113 to 115 °C.
`CCNC(=O)c1ccc(-c2ccc3nnn(Cc4ccc5ncccc5c4)c3n2)cc1Cl` registered a melting point of 187 to 190 °C.
`Cc1cccc2c1N(CC(=O)N1CC3CCC(CC3)C1)C(=O)C(NC(=O)Nc1cccc(C(=O)O)c1)N=C2c1ccccc1F` (stereo not drawn) yielded a melting point of 197 to 204 °C.
As for `CCCCCCCCCCCCCCCCOCC(O)CCSCCCN(C)C` (stereo not drawn), the figure is 30 to 32 °C; as for `Cc1cccc2c(=O)c3cccc(CBr)c3oc12`, 171 to 172 °C; as for `COc1ccc(Cl)cc1C1C(=O)Nc2cc(C(F)(F)F)ccc21` (stereo not drawn), 210 to 213 °C.
With `NS(=O)(=O)c1cc(C(=O)OCC(=O)N[C@@H](CCO[N+](=O)[O-])CO[N+](=O)[O-])c(NCc2ccco2)cc1Cl`, the melting point lay within 93 to 95 °C.
For the compound `COc1cc(F)ccc1Nc1ccc2c(c1)OCc1cc([N+](=O)[O-])ccc1C2=O`, the melting point stood at 222 °C.
As for `CC(C)(C)OC(=O)N1C2CCC1CNC2`, the figure is 102 to 104 °C; as for `CC(=O)c1ccc(Nc2ccncc2N)cc1`, 165 to 166 °C; as for `CCOC(=O)c1ccc(/C=C(\C)c2cc3c(s2)C(C)(C)CCC3(C)C)nc1`, 83 to 84 °C.
As to `CCOC(=O)c1cccc(-c2ccc3cc[nH]c3c2)c1`, the melting point lay within 120 to 121 °C.
Regarding `COC1=C(OC)C(=O)C(CCCCCC[C@H]2CC[C@H](O)CC2)=C(C)C1=O`, the melting point was in the range of 33.5 to 35.5 °C.
The compound `CN1C(=O)c2cc(Nc3ccccc3)c(Nc3ccccc3)cc2C1=O` gave a melting point of 195 to 196 °C.
Next, `O=C(O)CC1Sc2ccc([N+](=O)[O-])cc2CN(CCc2ccccc2)C1=O` (stereo not drawn): 210 to 214 °C; `CCCCSc1cc(C(=O)O)cc(S(N)(=O)=O)c1-c1ccccc1`: 75 to 77 °C.
Turning to `CCOC(=O)c1cc(=O)c2c(OCC(O)COc3ccc(C#N)c(OC)c3)cccc2o1` (stereo not drawn), the melting point was in the range of 143 to 145 °C.
`Cc1cc(C2=CCC(c3ccc(OCC4CO4)cc3)CC2)ccc1OCC1CO1` (stereo not drawn) displayed a melting point of 117 °C.
For the compound `Cc1cnc2c(NC(=O)c3ccccc3C(F)(F)F)cccc2c1N1CCN(C)C1=O`, the melting point was in the range of 182 to 191 °C.
`OCCCCCCCCCCCCCCCCCCCCCCC(F)(F)C(F)(F)C(F)(F)C(F)(F)F` returned a melting point of 69 to 71 °C.
Compound `Cc1cccc(-c2[nH]c(C(C)C)nc2-c2cccc(-c3ccc(S(=O)(=O)N4CCOCC4)cc3)c2)n1` showed a melting point of 88 to 92 °C.
The compound `COc1ccc(OC)c(-c2c(C(C)C)cc(C(C)C)cc2C(C)C)c1I` displayed a melting point of 189 to 191 °C.
Compound `NS(=O)(=O)c1cc(CCNC(=O)/C=C/c2cccs2)ccc1OCCc1ccccc1` displayed a melting point of 170 to 174 °C.
Consider `O=C1N(Cc2ccc(-c3cccc(Cl)c3)o2)c2ccccc2C12COc1cc3c(cc12)OCO3` (stereo not drawn), for which the melting point fell in the range of 205 to 207 °C.
